The values below are quoted from earlier work in US20240009181A1, “METHOD FOR THE TREATMENT AND PROPHYLAXIS OF SUBSTANCE-RELATED AND/OR ADDICTIVE DISORDERS INCLUDING SUBSTANCE/MEDICATION-INDUCED DEPRESSIVE DISORDERS, BIPOLAR AND RELATED DISORDERS, AND ANXIETY DISORDERS AND COMPOSITIONS USEFUL FOR THE SAME” (priority 2022, published 2024).

The conditions of data set [1]: in vivo.
A further data set relates to opioid use disorder. The note with it: vs. 23% given placebo.

Take `O=C1CCc2ccc(OCCCCN3CCN(c4cccc(Cl)c4Cl)CC3)cc2N1` [aripiprazole]: the half-life entry in data set [1] is recorded as “about 75 hours”.
For the compound `O=c1ccc2ccc(OCCCCN3CCN(c4cccc5sccc45)CC3)cc2[nH]1` [brexpiprazole], the half-life result in data set [1] is listed as “about 91 hours”.
Regarding `O=C1CC[C@@]2(O)[C@H]3Cc4ccc(O)c5c4[C@@]2(CCN3CC2CC2)[C@H]1O5` [naltrexone], the “complete abstinence (opioid-free over 19 weeks of treatment), share of subjects” value in the data set on opioid use disorder is listed as 36%.
Consider `CC1(C)O[C@@H]2[C@@H](CO[C@@]3(COS(N)(=O)=O)OC(C)(C)O[C@@H]23)O1` [topiramate], for which the half-life result in data set [1] was “about 21 hours”.
